Measured values published in US20090311237A1, “Combination therapy using a soluble hyaluronidase and a bisphosphonate” (priority 2008, published 2009).
Values joined by “and” are separate entries in the source; they are usually repeats but may differ in a detail not shown here. Identical values can stand only once. Like-named read-outs stand apart in the source and are kept apart here.

Test: Phase 1 Stage 1 clinical pharmacokinetics of SC ZA co-administered with rHuPH20
Assay type: in vivo, human
Settings: for half-life / AUC(0-t) / Cmax / AUC(0-inf) / Tmax: human, serum; for half-life: read-out: T½ λz (converted); for AUC(0-inf): read-out: AUC (0-inf); for Tmax: read-out: Tmax
Method: A pharmacokinetic study of zoledronic acid (ZA) co-administered with rHuPH20 in human subjects was conducted. The primary objective of the study was to determine the bioavailability of zoledronic acid dosed via subcutaneous (SC) co-administration with human recombinant hyaluronidase PH20 (rHuPH20). […] The patients were administered the prescribed dosage formulations as follows: Cohorts 1-5 were administered a single subcutaneous infusion in a dosage volume of 100 ml at a rate of 3 mL/min. […] The dosing solution is administered via needle or catheter into the SC space of the left anterior thigh (midway between the anterior iliac crest and the cephalad border of the patella). For cohorts 1-5, the dosing solutions were administered by a controlled rate infusion pump at approximately 3 mL/minute. […] The dosing solutions were administered by syringe push bolus injection. […] Serum concentration of ZA was determined using a qualified LC-MS-MS assay after derivatization with diazomethane (Zhu, L S et al. (2006) Rapid Commun. […] The assay range was from 2.0 to 400 ng/mL with a lower limit of quantitation (LLOQ) at 2.0 ng/mL. […] Non-compartmental analysis was used for derivation of primary and secondary pharmacokinetic (PK) parameters. […] Summary statistics (mean, standard deviation, and median) were calculated using JMP or Microsoft Excel.

[1] = ZA 2 mg SC + 24000 U rHuPH20, mean, n=3
[2] = ZA 2 mg SC + 24000 U rHuPH20, median, n=3
[3] = ZA 2 mg SC, 100 mL, 24000 Units rHuPH20, n=3
[4] = ZA 5 mg SC + 24000 U rHuPH20, individual subjects
[5] = ZA 5 mg SC + 24000 U rHuPH20, mean, n=3
[6] = ZA 5 mg SC + 24000 U rHuPH20, median, n=3
[7] = ZA 5 mg SC, 100 mL, 24000 Units rHuPH20, n=3
[8] = ZA 0.25-5 mg SC, 100 mL, 24000 Units rHuPH20, n=15
[9] = sc, 0.0196 mg/kg, Subj 27, ZA 0.0196 mg/kg SC, inf […], PH20 23976 U
[10] = sc, 0.0339 mg/kg, Subj 29, ZA 0.0339 mg/kg SC, inf 0.556 hr, PH20 24000 U
[11] = sc, 0.0608 mg/kg, Subj 68, ZA 0.0608 mg/kg SC, inf […], PH20 2880 U
[12] = sc, 0.0653 mg/kg, Subj 41, ZA 0.0653 mg/kg SC, inf […], PH20 12216 U
[13] = sc, 0.0691 mg/kg, Subj 39, ZA 0.0691 mg/kg SC, inf 0.552 hr, PH20 23856 U
[14] = sc, 0.0706 mg/kg, Subj 38, ZA 0.0706 mg/kg SC, inf 0.554 hr, PH20 23952 U
[15] = sc, 0.0717 mg/kg, Subj 67, ZA 0.0717 mg/kg SC, inf […], PH20 2880 U
[16] = sc, 0.0776 mg/kg, Subj 70, ZA 0.0776 mg/kg SC, inf […], PH20 2928 U
[17] = sc, 0.0781 mg/kg, Subj 71, ZA 0.0781 mg/kg SC, inf […], PH20 6000 U

## O=P(O)(O)C(O)(Cn1ccnc1)P(=O)(O)O [ZA, 1-hydroxy-2-(1H-imidazol-1-yl)ethylidene-1,1-bisphosphonic acid]
ZA 2 mg SC + 24000 U rHuPH20, individual subjects
  T½elim: 12.72 h (2×) and 22.02 h
[1]
  AUC (0-∞)/D: 0.00791 kg·h/mL
  Cmax/D: 0.00176 kg/mL
  T½elim: 15.82 h
[2]
  AUC (0-∞)/D: 0.00809 kg·h/mL
  Cmax/D: 0.00175 kg/mL
  T½elim: 12.72 h
ZA 2 mg SC, 100 mL, 24000 Units rHuPH20, individual subjects
  MAT (mean absorption time = SC MRT − IV MRT): 0.47 h and 0.94 h and 1.39 h
[3]
  MAT, Mean for the dose group: 0.93 h
  MAT, Median for the dose group: 0.94 h
[4]
  AUC (0-12h): 477.36 ng·h/mL and 575.89 ng·h/mL
  AUC (0-∞): 729.31 ng·h/mL
  AUC (0-∞)/D: 0.00789 kg·h/mL and 0.00901 kg·h/mL and 0.01049 kg·h/mL
  Cmax/D: 0.00167 kg/mL and 0.00165 kg/mL and 0.00211 kg/mL
  MRT: 13.81 h
  T½elim: 23.36 h and 24.45 h and 26.05 h
[5]
  AUC (0-∞)/D: 0.00913 kg·h/mL
  Cmax/D: 0.00181 kg/mL
  T½elim: 24.62 h
[6]
  AUC (0-∞)/D: 0.00901 kg·h/mL
  Cmax/D: 0.00167 kg/mL
  T½elim: 24.45 h
ZA 5 mg SC, 100 mL, 24000 Units rHuPH20, individual subjects
  MAT (mean absorption time = SC MRT − IV MRT): 1.74 h and 4.61 h and 3.46 h
[7]
  MAT, Mean for the dose group: 3.27 h
  MAT, Median for the dose group: 3.46 h
[8]
  MAT, Mean for all dose groups: 1.64 h
  MAT, Median for all dose groups: 1.39 h
0.082 mg/kg, Subj 63, ZA 0.0820 mg/kg SC, inf 0.250 hr, PH20 6000 U
  half-life: 20.5 h
sc, 0.0196 mg/kg, AUC (0-12 h), Subj 27, ZA 0.0196 mg/kg SC, inf […], PH20 23976 U
  AUC(0-t): 104 ng·h/mL
sc, 0.0196 mg/kg, AUC (0-24 h), Subj 27, ZA 0.0196 mg/kg SC, inf […], PH20 23976 U
  AUC(0-t): 116 ng·h/mL
sc, 0.0196 mg/kg, AUC (0-48 h), Subj 27, ZA 0.0196 mg/kg SC, inf […], PH20 23976 U
  AUC(0-t): 119 ng·h/mL
[9]
  Cmax: 25 ng/mL
  AUC(0-inf): 120 ng·h/mL
  Tmax: 0.72 h
sc, 0.0196 mg/kg
  half-life: 6.53 h
sc, 0.0339 mg/kg, AUC (0-12 h), Subj 29, ZA 0.0339 mg/kg SC, inf 0.556 hr, PH20 24000 U
  AUC(0-t): 217 ng·h/mL
sc, 0.0339 mg/kg, AUC (0-24 h), Subj 29, ZA 0.0339 mg/kg SC, inf 0.556 hr, PH20 24000 U
  AUC(0-t): 231 ng·h/mL
sc, 0.0339 mg/kg, AUC (0-48 h), Subj 29, ZA 0.0339 mg/kg SC, inf 0.556 hr, PH20 24000 U
  AUC(0-t): 236 ng·h/mL
[10]
  Cmax: 62.8 ng/mL
  AUC(0-inf): 241 ng·h/mL
  Tmax: 1.29 h
sc, 0.0608 mg/kg, AUC (0-12 h), Subj 68, ZA 0.0608 mg/kg SC, inf […], PH20 2880 U
  AUC(0-t): 456 ng·h/mL
sc, 0.0608 mg/kg, AUC (0-24 h), Subj 68, ZA 0.0608 mg/kg SC, inf […], PH20 2880 U
  AUC(0-t): 503 ng·h/mL
sc, 0.0608 mg/kg, AUC (0-48 h), Subj 68, ZA 0.0608 mg/kg SC, inf […], PH20 2880 U
  AUC(0-t): 557 ng·h/mL
[11]
  Cmax: 144 ng/mL
  AUC(0-inf): 630 ng·h/mL
  Tmax: 1 h
sc, 0.0608 mg/kg
  half-life: 27.9 h
sc, 0.0653 mg/kg, AUC (0-12 h), Subj 41, ZA 0.0653 mg/kg SC, inf […], PH20 12216 U
  AUC(0-t): 487 ng·h/mL
sc, 0.0653 mg/kg, AUC (0-24 h), Subj 41, ZA 0.0653 mg/kg SC, inf […], PH20 12216 U
  AUC(0-t): 531 ng·h/mL
sc, 0.0653 mg/kg, AUC (0-48 h), Subj 41, ZA 0.0653 mg/kg SC, inf […], PH20 12216 U
  AUC(0-t): 597 ng·h/mL
[12]
  Cmax: 141 ng/mL
  AUC(0-inf): 736 ng·h/mL
  Tmax: 1.01 h
sc, 0.0653 mg/kg
  half-life: 42.8 h
sc, 0.0691 mg/kg, AUC (0-12 h), Subj 39, ZA 0.0691 mg/kg SC, inf 0.552 hr, PH20 23856 U
  AUC(0-t): 574 ng·h/mL
sc, 0.0691 mg/kg, AUC (0-24 h), Subj 39, ZA 0.0691 mg/kg SC, inf 0.552 hr, PH20 23856 U
  AUC(0-t): 619 ng·h/mL
sc, 0.0691 mg/kg, AUC (0-48 h), Subj 39, ZA 0.0691 mg/kg SC, inf 0.552 hr, PH20 23856 U
  AUC(0-t): 667 ng·h/mL
[13]
  Cmax: 147 ng/mL
  AUC(0-inf): 727 ng·h/mL
  Tmax: 0.79 h
sc, 0.0691 mg/kg
  half-life: 26.1 h
sc, 0.0706 mg/kg, AUC (0-12 h), Subj 38, ZA 0.0706 mg/kg SC, inf 0.554 hr, PH20 23952 U
  AUC(0-t): 477 ng·h/mL
sc, 0.0706 mg/kg, AUC (0-24 h), Subj 38, ZA 0.0706 mg/kg SC, inf 0.554 hr, PH20 23952 U
  AUC(0-t): 524 ng·h/mL
sc, 0.0706 mg/kg, AUC (0-48 h), Subj 38, ZA 0.0706 mg/kg SC, inf 0.554 hr, PH20 23952 U
  AUC(0-t): 580 ng·h/mL
[14]
  Cmax: 117 ng/mL
  AUC(0-inf): 637 ng·h/mL
  Tmax: 1.3 h
sc, 0.0717 mg/kg, AUC (0-12 h), Subj 67, ZA 0.0717 mg/kg SC, inf […], PH20 2880 U
  AUC(0-t): 565 ng·h/mL
sc, 0.0717 mg/kg, AUC (0-24 h), Subj 67, ZA 0.0717 mg/kg SC, inf […], PH20 2880 U
  AUC(0-t): 630 ng·h/mL
sc, 0.0717 mg/kg, AUC (0-48 h), Subj 67, ZA 0.0717 mg/kg SC, inf […], PH20 2880 U
  AUC(0-t): 683 ng·h/mL
[15]
  Cmax: 156 ng/mL
  AUC(0-inf): 725 ng·h/mL
  Tmax: 0.74 h
sc, 0.0717 mg/kg
  half-life: 18.3 h
sc, 0.0776 mg/kg, AUC (0-12 h), Subj 70, ZA 0.0776 mg/kg SC, inf […], PH20 2928 U
  AUC(0-t): 573 ng·h/mL
sc, 0.0776 mg/kg, AUC (0-24 h), Subj 70, ZA 0.0776 mg/kg SC, inf […], PH20 2928 U
  AUC(0-t): 616 ng·h/mL
sc, 0.0776 mg/kg, AUC (0-48 h), Subj 70, ZA 0.0776 mg/kg SC, inf […], PH20 2928 U
  AUC(0-t): 658 ng·h/mL
[16]
  Cmax: 215 ng/mL
  AUC(0-inf): 690 ng·h/mL
  Tmax: 0.68 h
sc, 0.0776 mg/kg
  half-life: 19.4 h
sc, 0.0781 mg/kg, AUC (0-12 h), Subj 71, ZA 0.0781 mg/kg SC, inf […], PH20 6000 U
  AUC(0-t): 592 ng·h/mL
sc, 0.0781 mg/kg, AUC (0-24 h), Subj 71, ZA 0.0781 mg/kg SC, inf […], PH20 6000 U
  AUC(0-t): 629 ng·h/mL
sc, 0.0781 mg/kg, AUC (0-48 h), Subj 71, ZA 0.0781 mg/kg SC, inf […], PH20 6000 U
  AUC(0-t): 665 ng·h/mL
[17]
  Cmax: 198 ng/mL
  AUC(0-inf): 693 ng·h/mL
  Tmax: 0.88 h
